Laboratory results as given in patent US10494357B2, “Tocotrienol derivatives, pharmaceutical composition and method of use in 5-lipoxygenase related diseases” (UNIVERSITÉ D'ANGERS, priority 2015, dated 2019).
Like-named read-outs stand apart in the source and are kept apart here.

Key:
[1] = tested on: 5-LO product formation in neutrophils; experiment: 5-LO product formation in neutrophils; format: cell-based, human; conditions: for IC50: Homo sapiens, Neutrophil; for 5-LO product formation in neutrophils (A23187) residual activities [% vehicle control]: A23187 alone; for 5-LO product formation in neutrophils (AA + A23187) residual activities [% vehicle control]: A23187 plus 20 μM AA
Description: Freshly isolated neutrophils (1×10^7/ml) were pre-incubated with the test compounds for 15 min at 37° C. Then, 5-LO product formation was started by addition of 2.5 μM Ca^2+-ionophore A23187 alone or A23187 plus 20 μM arachidonic acid (AA). The reaction was stopped after 10 min at 37° C. with 1 ml of methanol. Major 5-LO metabolites (LTB4 and its all-trans isomers and 5-H(P)ETE) were extracted and analyzed by HPLC as described (Werz: Blood 2002, 99, 1044-1052). Cysteinyl-LTs C4, D4 and E4 and oxidation products of LTB4 were not determined.

[2] = tested on: LTC4 formation; experiment: Zymosan-induced peritonitis in mice, LTC4 level in peritoneal exudate; format: in vivo; conditions: 10 mg/kg i.p. 30 min before zymosan, measured 30 min after zymosan injection
Description: Zymosan was used to trigger peritonitis in mice pre-treated with a-amplexichromanol or Zileuton, each at a dose of 10 mg/kg. The resulting LTC4 levels in the peritoneal exudate were measured 30 min after zymosan injection.
α-amplexichromanol (10 mg/kg) or vehicle (0.5 ml of 0.9% saline solution containing 2% DMSO) were given i.p. 30 min before zymosan i.p. injection (0.5 ml of a 2 mg/ml suspension in 0.9% w/v saline). Mice were killed by inhalation of CO2 at the indicated time points followed by a peritoneal lavage with 3 ml of cold PBS pH 7.4. Exudates were collected. After centrifugation of the exudates (18,000× g, 5 min, 4° C.), the amounts of cysteinyl-LTs were analyzed in the supernatant by enzyme immunoassay (Enzo Life Sciences GmbH, Lörrach, Germany) according to manufacturer's instructions.

[3] = tested on: HepaRG® cells; experiment: Hepatotoxicity assay; format: cell-based; conditions: 48 h
Description: HepaRG® cells were seeded at a density of 2.6×10^4 cells/cm^2 in Williams' E medium supplemented with 2 mM glutamax, 100 U/mL penicillin, 100 μg/mL streptomycin, 10% Hyclone fetal calf serum, 5 μg/mL insulin, and […] hydrocortisone hemisuccinate. At confluence, after 2 weeks, HepaRG® cells were shifted to the same medium supplemented with 1.7% dimethyl sulfoxide for 2 additional weeks in order to obtain confluent differentiated cultures containing equal proportions of hepatocyte-like and progenitors/primitive biliary-like cell. These differentiated hepatic cell cultures were used for analytical assays.
Then, the cells were exposed to a tocotrienol derivative in Williams' E medium supplemented with 2% Hyclone fetal calf serum containing 0.2% dimethyl sulfoxide during 48 h.

[4] = biological target: T1, human recombinant 5-LO (Homo sapiens, UniProt P09917); experiment: Human recombinant 5-LO activity; format: biochemical
T1 construct: made in house; inferred to be the same preparation
T1 sequence (P09917 1-674): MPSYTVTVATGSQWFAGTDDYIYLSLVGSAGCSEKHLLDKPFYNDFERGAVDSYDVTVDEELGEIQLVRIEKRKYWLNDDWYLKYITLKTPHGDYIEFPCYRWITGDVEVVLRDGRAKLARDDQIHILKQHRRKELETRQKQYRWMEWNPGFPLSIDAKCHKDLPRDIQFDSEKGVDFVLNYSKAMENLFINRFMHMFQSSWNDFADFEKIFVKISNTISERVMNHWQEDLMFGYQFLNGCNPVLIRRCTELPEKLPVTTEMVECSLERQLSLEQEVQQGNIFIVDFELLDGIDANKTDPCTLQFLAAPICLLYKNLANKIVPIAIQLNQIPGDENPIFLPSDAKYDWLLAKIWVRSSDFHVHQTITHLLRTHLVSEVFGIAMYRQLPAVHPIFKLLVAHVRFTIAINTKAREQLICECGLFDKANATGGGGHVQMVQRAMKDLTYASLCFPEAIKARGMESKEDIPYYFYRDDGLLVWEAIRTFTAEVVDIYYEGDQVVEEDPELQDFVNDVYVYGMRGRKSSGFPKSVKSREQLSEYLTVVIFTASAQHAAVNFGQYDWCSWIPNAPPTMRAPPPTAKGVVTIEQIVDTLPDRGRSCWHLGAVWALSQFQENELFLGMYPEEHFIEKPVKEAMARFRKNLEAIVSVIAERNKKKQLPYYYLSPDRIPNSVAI
Description: Methods for measuring the 5-LO activity are well-known from the skilled artisan. An example of such a method is disclosed in the Examples.
Human recombinant 5-LO was pre-incubated with the test compounds for 10 min at 4° C. and pre-warmed for 30 s at 37° C. 5-LO product formation was initiated by addition of 2 mM CaCl2 and 20 μM arachidonic acid. After 10 min at 37° C., the reaction was terminated by addition of 1 ml ice-cold methanol.

[5] = tested on: IL-1β; experiment: IL-1β release from LPS-stimulated monocytes (ELISA); format: cell-based; conditions: LPS 10 ng/ml
Description: (§1) First, different concentrations of δ-amplexichromanol (0.1; 1 and 10 μM) were added to the stimulated monocytes.
(§2) Secondly, monocytes were stimulated with lipopolysaccharide (LPS, 10 ng/ml for 4-18 h) for inducing the formation of pro-inflammatory cytokines.
(§3) Finally, the resulting levels of proinflammatory cytokines were measured by ELISA. Dexamethasone (1 μM) was used as control.

[6] = tested on: TNF-α; experiment: TNF-α release from LPS-stimulated monocytes (ELISA); format: cell-based; conditions: LPS 10 ng/ml
Description: as §1, §2, §3

[7] = tested on: IL-8; experiment: IL-8 release from LPS-stimulated monocytes (ELISA); format: cell-based; conditions: LPS 10 ng/ml
Description: as §1, §2, §3

[8] = human recombinant 5-LO, read-out: IC50 (nM) 5-LO activity

SMILES	IC50 [1]	Number of cells ([3]; 0.1 μM)	Number of cells ([3]; 1 μM)	Number of cells ([3]; 10 μM)	IC50 [4, 8]	further results
CC(=O)N(O)C/C=C/c1cccc(Oc2ccccc2)c1 [BWA4C, N-RE)-3-(3-phenoxyphenye-prop-2-enyllacetohydroxamic acid, reference compound]	41 ± 1 nM					
C/C(=C\CC/C(C)=C/CCC1(C)CCc2c(C)c(O)c(C)c(C)c2O1)CCC=C(CO)CO (centres unmarked) [Compound 1, 2-((4E,8E)-11-(6-hydroxy-2,5,7,8-tetramethylchroman-2-yl)-4,8-dimethylundeca-4,8-dien-1-ylidene)propane-1,3-diol]	19 ± 4 nM	4389	4705	4702	106 ± 29 nM	LTC4 level in the peritoneal exudate [2]: the same than the LTC4 level obtained by Zileuton
C/C(=C\CC/C(C)=C/CCC1(C)CCc2c(C)c(O)cc(C)c2O1)CCC=C(CO)CO (centres unmarked) [Compound 9, 2-((4E,8E)-11-(6-hydroxy-2,5,8-trimethylchroman-2-yl)-4,8-dimethylundeca-4,8-dien-1-ylidene)propane-1,3-diol]	114 ± 35 nM	4429	4436	4785		IC50 [4]: 91 ± 15 nM
C/C(=C/CC/C(C)=C/CC/C(C)=C/CCC1(C)CCc2cc(O)cc(C)c2O1)CO (centres unmarked) [Compound 23, 2-((3E,7E,11Z)-13-hydroxy-4,8,12-trimethyltrideca-3,7,11-trien-1-yl)-2,8-dimethylchroman-6-ol]	220 ± 40 nM				137 ± 29 nM	
C/C(=C\CC/C(C)=C/CCC1(C)CCc2cc(O)cc(C)c2O1)CCC=C(CO)CO (centres unmarked) [Compound 26, 2-((4E,8E)-11-(6-hydroxy-2,8-dimethylchroman-2-yl)-4,8-dimethylundeca-4,8-dien-1-ylidene)propane-1,3-diol]	419 ± 33 nM				148 ± 35 nM	IL-1β release (%) ([5]; 1 μM): 86 ± 11%; 5-LO product formation in neutrophils (A23187) residual activities [% vehicle control] ([1]; 0.1 μM): 17.4 ± 8.8 % vehicle control; 5-LO product formation in neutrophils (AA + A23187) residual activities [% vehicle control] ([1]; 0.1 μM): n.i.^a; 5-LO product formation in neutrophils (A23187) residual activities [% vehicle control] ([1]; 1 μM): 10.0 ± 2.8 % vehicle control; 5-LO product formation in neutrophils (AA + A23187) residual activities [% vehicle control] ([1]; 1 μM): 15.4 ± 4.4 % vehicle control; 5-LO product formation in neutrophils (A23187) residual activities [% vehicle control] ([1]; 10 μM): 0.0 ± 0.0 % vehicle control; 5-LO product formation in neutrophils (AA + A23187) residual activities [% vehicle control] ([1]; 10 μM): 0.6 ± 0.6 % vehicle control; TNF-α release (%) ([6]; 1 μM): n.i.^a; IL-8 release (%) ([7]; 1 μM): n.i.^a
C/C(=C/CC/C(C)=C/CC/C(C)=C/CCC1(C)CCc2cc(O)c(C)c(C)c2O1)CO (centres unmarked) [Compound 33, 2-((3E,7E,11Z)-13-hydroxy-4,8,12-trimethyltrideca-3,7,11-trien-1-yl)-2,7,8-trimethylchroman-6-ol]	140 ± 21 nM	4363	4412	4610	120 ± 29 nM	
C/C(=C\CC/C(C)=C/CCC1(C)CCc2cc(O)c(C)c(C)c2O1)CCC=C(CO)CO (centres unmarked) [Compound 34, 2-((4E,8E)-11-(6-hydroxy-2,7,8-trimethylchroman-2-yl)-4,8-dimethylundeca-4,8-dien-1-ylidene)propane-1,3-diol]	67 ± 54 nM	4212	4562	4677	110 nM	
CC(c1cc2ccccc2s1)N(O)C(N)=O (centres unmarked) [Zileuton, reference compound]		4313	4244	4554		
C[C@@H]1C[C@H]2[C@@H]3CCC4=CC(=O)C=C[C@]4(C)[C@@]3(F)[C@@H](O)C[C@]2(C)[C@@]1(O)C(=O)CO [dexamethasone]						IL-1β release (%) ([5]; 1 μM): 68.7 ± 2.4%; IL-1β release (%) ([5]; 10 μM): 49.9 ± 4.8%; TNF-α release (%) ([6]; 1 μM): 42.2 ± 0.8%; TNF-α release (%) ([6]; 10 μM): 13.3 ± 2.6%; IL-8 release (%) ([7]; 1 μM): 83.5 ± 3.2%; IL-8 release (%) ([7]; 10 μM): 30.6 ± 1.5%
